Entries after “also recorded” stand apart in the source; their conditions may differ.
Tests used:
blood pressure = assay: Rat blood pressure after transduodenal administration (femoral artery cannula, transducer); assay type: in vivo; settings: 100 μg, FIG. 4
[1] = test system: kidney sympathetic nervous activity; assay: Rat kidney sympathetic nervous activity after transduodenal administration (electrical discharge recording); assay type: in vivo; settings: male Wister rats, urethane-anesthesia
Method: In these experiments, use was made of male Wister rats weighing about 300 to 350 g which had been preliminarily fed in a thermostatic chamber (24° C.) with a light-dark cycle of 12-hour intervals (under illumination from 8:00 to 20:00) for 1 week or longer. A single rat was employed for each nervous experiment. The animals were fed with a feed (MF: Oriental Yeast) and water ad libitum. The autonomic nervous activity were examined by fasting the rats for 5 hours on the day of the experiment and then subjecting to an abdominal surgery under urethane-anesthesia (1 g/kg, i.p.). Then, the effects of the transduodenal administration of L-phenyl lactic acid and D-phenyl lactic acid (10 μg or 100 μg) on the kidney sympathetic nervous activity were measured in accordance with the method reported by T. Yamano et al., Neurosci. Lett. 313:78-82 (2001), A. Niijima et al., Autonom. Neurosci.: Basic & Clinical 97:99-102 (2002) and M. Tanida et al., Am. J. Physiol: Regulatory, Integrative and Comparative Physiology 288:R447-R455 (2005). Namely, the sympathetic nerve projecting toward the kidney was cut before the organ and the central side was placed on a silver electrode. Thus, a change in the electrical activity was monitored. To prevent dryness, the electrode had been preliminarily dipped in a mixture of liquid paraffin and petroleum jelly for a sufficient period of time. From the initiation of the surgery to the completion of the measurement, a tube was inserted into the respiratory tract for the management of the airway. The body temperature (rat rectal temperature) was maintained at 35±0.5° C. with the use of a heater. The transduodenal administration was conducted by dissolving L-phenyl lactic acid or D-phenyl lactic acid in physiological saline to give a concentration of 10 μg/2 ml or 100 μg/2 ml, and administering 2 ml/animal of each solution at a rate of 1 ml/min through a polyethylene tube inserted into the duodenum. Electrical nervous activity thus obtained were amplified with a condenser type differential amplifier, monitored with an oscilloscope and recorded on a magnetic tape. To separate the raw data from the background noise, all of the nervous activities were converted into standard pulses by use of a slicer and a window discriminator before analyzing. Discharge frequencies were indicated on a pen recorder by using a rate meter at a reset time of 5 seconds. The data was analyzed based on the average discharge frequency per 5 seconds (pulse/5 sec) and expressed in percentage by referring the level before the administration as to 100%. A group with the administration of physiological saline was employed as a control.

[2] = test system: stomach vagal (parasympathetic) nervous activity; assay: Rat stomach vagal (parasympathetic) nervous activity after transduodenal administration; assay type: in vivo; settings: 100 μg, FIG. 5
Aspergillus niger = settings: etc.; cited from earlier work
[3] = test system: pathogenic Escherichia coli O-157; settings: phenyl lactic acid produced by use of a lactic acid bacterium; cited from earlier work
[4] = test system: methicillin-resistant Staphylococcus aureus; settings: phenyl lactic acid produced by use of a lactic acid bacterium; cited from earlier work

Compound | effect on rat blood pressure (blood pressure) | effect on kidney sympathetic nervous activity ([1]; 10 μg/animal, FIG. 2) | effect on kidney sympathetic nervous activity ([1]; 100 μg/animal, FIG. 3) | effect on rat stomach vagal (parasympathetic) nervous activity [2] | antifungal activity (Aspergillus niger) | antibacterial effect [3] | antibacterial effect [4]
O=C(O)[C@H](O)Cc1ccccc1 [D-phenyl lactic acid, D-β-3-phenyl lactic acid] | hypotensive effects | enhanced | reduced |  |  |  | 
O=C(O)[C@@H](O)Cc1ccccc1 [L-phenyl lactic acid, L-β-3-phenyl lactic acid] | hypotensive effects | little effect | reduced; also recorded: higher reducing effect | enhancement |  |  | 
O=C(O)C(O)Cc1ccccc1 (stereo not shown) [phenyl lactic acid, 2-hydroxy-3-phenyl propionic acid] |  |  |  |  | antifungal activity | antibacterial effect | antibacterial effect

Source: patent US8492442B2, “Medicinal composition, food or drink having effect of enhancing parasympathetic nervous activity” (Suntory Holdings Limited, priority 2007, dated 2013)
